Tests used:
A549 = assay: MTT reduction proliferation test, 72 h incubation; type: cell-based; conditions: A 549 cells
Description: (§1) Des cellules tumorales L1210, A549 et HT29, à une concentration de 5.10³/ml dans un milieu RPMI, sont incubées dans des plaques de microtitration contenant 96 puits, pendant 72 heures (37°C, 5 % CO₂, 95 % d'humidité relative) avec différentes concentrations de chacun des glycosides (anthracyclines) conformes à l'invention.
(§2) Les témoins consistent en cellules tumorales exposées à un milieu de culture. Quatre puits sont préparés pour chaque concentration en glycoside et pour le témoin. Après 65 heures, 50 µl de MTT (2,5 mg/ml dans du PBS) sont ajoutés.
(§3) Le MTT sera réduit, en présence de cellules vivantes en un colorant formazan rouge insoluble. Après 7 à 24 heures d'incubation supplémentaire, le surnageant est enlevé. Le colorant formazan est solubilisé par l'addition de 100 µl de DMSO dans chaque puits, suivie d'une agitation douce.
(§4) L'extinction est mesurée pour chaque puits, à 492 nm (photomètre Multiscan 340 CC Fa. Flow).
(§5) Les résultats sont exprimés comme le rapport de l'extinction après incubation avec les glycosides sur l'extinction obtenue avec les témoins. Le coefficient de variation est inférieur à 15 %.

HT29 = assay: MTT reduction proliferation test, 72 h incubation; type: cell-based; conditions: HT 29 cells
Description: as §1, §2, §3, §4, §5

L1210 [1] = assay: MTT reduction proliferation test, 72 h incubation; type: cell-based; conditions: L1210 cells
Description: as §1, §2, §3, §4, §5

L1210 [2] = assay: In vivo antitumour effect on L1210 ascites leukemia in mice; parameters: species or system souris BDF1; conditions: for L1210 T/C %: 3 x 1.p./ 1.p. Q3D, BDF1 mice
Description: Un liquide d'ascite est prélevé dans les conditions aseptiques chez des souris DBA2 (femelle, 18 - 20 g) le septième jours après l'implantation.
L'ascite est lavée trois fois avec du PBS, comptée et finalement diluée dans du PBS, de manière à obtenir 10⁶ cellules/0,2 ml.
10⁶ cellules dans 0,2 ml de P BS sont injectées dans le peritoine de souris DBA2 pour la propagation de la lignée cellulaire.
10⁶ cellules dans 0,2 ml de PBS sont injectés intrapériotonéalement à des souris BDF1 (femelle 18 - 20 g), 6 animaux/group sont utilisés pour chaque concentration de substance et pour le contrôle.
• a) les animaux sont pesés le premier jour et le cinquième jour après l'administration du médicament. Une perte de poids supérieure à 20 % le cinquième jour est utilisée comme indicateur d'effet toxique du produit. • b) à la fin de l'expérience, (mort de tous les animaux ou soixantième jour de l'essai), le temps moyen de survie des animaux, dans tous les groupes ayant plus de 65 % de survivants au cinquième jour, est évalué selon des procédures standard.
Les animaux survivants au soixantième jour sont considérés comme des survivants de longue durée (LTS : Long Time Survivors) et sont répertoriés séparément.
A partir du temps de survie moyen des groupes traités (MSTT) et des groupes contrôle (MSTC), l'effet antitumoral (T/C) est évalué en fonction de la formule suivante : [formula]
Les valeurs T/C de plus de 125 % sont considé-rées comme des indicateurs d'un effet antitumoral significatif.

[3] = Acute toxicity in mice (Litchfield Wilcoxon); type: in vivo, souris NMRI; conditions: 3 x i.p., NMRI mice, deaths counted after two weeks
Excerpt: La substance à tester est injectée à des souris NMRI selon le protocole tel que précisé dans le Tableau IV, ci-après.
Après deux semaines, le nombre total d'animaux décédés dans chaque groupe est calculé et les DL₅₀ sont évaluées en utilisant la méthode de Litchfield Wilcoxon.

Row | Compound | CI₅₀ TEST AU MTT A 549 (A549) | CI₅₀ TEST AU MTT HT 29 (HT29) | CI₅₀ TEST AU MTT L1210 (L1210 [1]) | L1210 T/C % (L1210 [2]; 10.00 mg/kg/Inj.) [%] | L1210 T/C % (L1210 [2]; 13.30 mg/kg/Inj.) [%] | L1210 T/C % (L1210 [2]; 17.70 mg/kg/Inj.) [%] | Morts toxiques (L1210 [2]; 17.70 mg/kg/Inj., 6 animals/group) | DL₅₀ [3]
1 | CCCCC1OC(OC2CC(O)(C(C)=O)Cc3c(O)c4c(c(O)c32)C(=O)c2c(OC)cccc2C4=O)CC(OC(C)=O)C1OC(C)=O (centres unmarked) [20 c, acétoxy-3′ O-acétyl-4′ désamino-3′ propyl-6′ daunorubicine] | > 1 µg/mL | > 1 µg/mL | > 1 µg/mL |  |  |  |  | 
2 | CCC1(O)CC(OC2CC(OC(C)=O)C(OC(C)=O)C(C)O2)c2c(O)c3c(c(O)c2C1O)C(=O)c1cccc(O)c1C3=O [21 a, O-(di-O-acétyl-3′,4′ didésoxy-2′,6′-α-L-thréo-hexopyrannosyl)-7 β-Rhodomycinone] | 0,086 µg/ml | 0,038 µg/ml | 0,03 µg/ml | 134 | 152 | 146 | 1/6 | > 21.3
3 | CC[C@@H]1O[C@@H](O[C@H]2C[C@](O)(CC)[C@H](O)c3c(O)c4c(c(O)c32)C(=O)c2c(O)cccc2C4=O)C[C@H](OC(C)=O)[C@@H]1OC(C)=O [21 b, O-(di-O-acétyl-3′-4′ tridésoxy-2′,6′,7′-α-L-thréo-heptopyrannosyl)-7 β-Rhodomycinone] | 0,46 µg/ml | > 1 µg/mL | 0,51 µg/ml |  |  |  |  | 
4 | CCCCC[C@@H]1O[C@@H](O[C@H]2C[C@](O)(CC)[C@H](O)c3c(O)c4c(c(O)c32)C(=O)c2c(O)cccc2C4=O)C[C@H](OC(C)=O)[C@@H]1OC(C)=O [21 c, O-(di-O-acétyl-3′,4′hexadésoxy-2′,6′,7′,8′,9′,10′-α-L-thréodécapyrannosyl)-7 β-Rhodomycinone] | > 1 µg/mL | > 1 µg/mL | > 1 µg/mL |  |  |  |  | 
5 | CC[C@@H]1O[C@@H](O[C@H]2C[C@](O)(CC)[C@H](O[C@@H]3C[C@H](OC(C)=O)[C@H](OC(C)=O)[C@H](CC)O3)c3c(O)c4c(c(O)c32)C(=O)c2c(O)cccc2C4=O)C[C@H](OC(C)=O)[C@@H]1OC(C)=O [22 b, Di-O-(di-O-acétyl-3′,4′tridésoxy-2′,6′,7′-α-L-thréoheptopyrannosyl)-7,10 β-Rhodomycinone] | > 1 µg/mL | > 1 µg/mL | > 1 µg/mL |  |  |  |  | 
6 | CCCCCC1OC(OC2CC(O)(CC)C(OC3CC(OC(C)=O)C(OC(C)=O)C(CCCCC)O3)c3c(O)c4c(c(O)c32)C(=O)c2c(O)cccc2C4=O)CC(OC(C)=O)C1OC(C)=O [22 c, di-O-(di-O-acétyl-3′,4′ hexadésoxy-2′,6′,7′,8′,9′, 10′-α-L-thréodécapyrannosyl)-7,10 β-Rhodomycinone] | > 1 µg/mL | > 1 µg/mL | > 1 µg/mL |  |  |  |  | 

From patent publication EP0341154A2, “Analogues of L-fucose, process for their preparation, their application for the preparation of glycals, anthracycline derivatives of the glycals and the use of the anthracyclines as medicaments” (priority 1988, dated 1989)
